Reference: patent US8648092B2, “Imidazo[1,2-a]pyridine derivatives: preparation and pharmaceutical applications” (MEI Pharma, priority 2005, dated 2014)

What was measured:
[1] = biological target: HDAC1 enzyme (recombinant GST-HDAC1) (Homo sapiens (Human), UniProt Q13547); assay: In vitro HDAC assay for determination of IC50 values (BIOMOL fluorescent-based HDAC activity assay); format: biochemical; conditions: Flur de lys substrate, 2 h room temperature, read-out: IC50 (HDAC 1)
Protocol: Biological Testing and Enzyme Assays Recombinant GST-HDAC1 Protein Expression and Purification
Human cDNA library was prepared using cultured SW620 cells. Amplification of human HDAC1 coding region from this cDNA library was cloned separately into the baculovirus expression pDEST20 vector (GATEWAY Cloning Technology, Invitrogen Pte Ltd). The pDEST20-HDAC1 construct was confirmed by DNA sequencing. Recombinant baculovirus was prepared using the Bac-To-Bac method following the manufacturer's instruction (Invitrogen Pte Ltd).
Expression of GST-HDAC1 was done by infecting SF9 cells (Invitrogen Pte Ltd) with pDEST20-HDAC1 baculovirus at MOI=1 for 48 h. Soluble cell lysate was incubated with pre-equilibrated Glutathione Sepharose 4B beads (Amersham) at 4° C. for 2 h. The beads were washed with PBS buffer for 3 times. The GST-HDAC1 protein was eluted by elution buffer containing 50 mM Tris, pH8.0, 150 mM NaCl, 1% Triton X-100 and 10 mM or 20 mM reduced Glutathione. The purified GST-HDAC1 protein was dialyzed with HDAC storage buffer containing 10 mM Tris, pH7.5, 100 mM NaCl and 3 mM MgCl2. 20% Glycerol was added to purified GST-HDAC1 protein before storage at −80° C.
In Vitro HDAC Assay for Determination of IC50 Values
The assay has been carried out in 96 well format and the BIOMOL fluorescent-based HDAC activity assay has been applied. […] Flur de lys Developer was added and the reaction was incubated for 10 min. Briefly, deacetylation of the substrate sensitizes it to the developer, which then generates a fluorophore. The fluorophore is excited with 360 nm light and the emitted light (460 nm) is detected on a fluorometric plate reader (Tecan Ultra Microplate detection system, Tecan Group Ltd.).
The analytical software, Prism 4.0 (GraphPad Software Inc) has been used to generate IC50 from a series of data.

[2] = tested on: Colo205 cells; assay: Cell-based proliferation assay for determination of GI50 values (CyQUANT); set-up: species or system human; conditions: Homo sapiens, COLO 205, 96 h treatment
Protocol: Cell-Based Proliferation Assay for Determination of GI50 Values
Human cancer cell lines (e.g. Colo205) were obtained from ATCC. Colo205 cells were cultivated in RPMI 1640 containing 2 mM L-Glutamine, 5% FBS, 1.0 mM Na Pyruvate. Colo205 cells were seeded in 96-wells plate at 5000 cells per well. The plates were incubated at 37° C., 5% CO2, for 24 h. Cells were treated with compounds at various concentrations for 96 h. Cell growth was then monitored using CyQUANT® cell proliferation assay (Invitrogen Pte Ltd). Dose response curves were plotted to determine GI50 values for the compounds using XL-fit (ID Business Solution, Emeryville, Calif.). GI50 is defined as the concentration of compound required for 50% inhibition of cell growth.
The cellular or growth inhibition activity results of representative compounds are shown in Table 4 below (unit in the table is micromolar).

Sequence of HDAC1 enzyme (recombinant GST-HDAC1) (Q13547 whole entry): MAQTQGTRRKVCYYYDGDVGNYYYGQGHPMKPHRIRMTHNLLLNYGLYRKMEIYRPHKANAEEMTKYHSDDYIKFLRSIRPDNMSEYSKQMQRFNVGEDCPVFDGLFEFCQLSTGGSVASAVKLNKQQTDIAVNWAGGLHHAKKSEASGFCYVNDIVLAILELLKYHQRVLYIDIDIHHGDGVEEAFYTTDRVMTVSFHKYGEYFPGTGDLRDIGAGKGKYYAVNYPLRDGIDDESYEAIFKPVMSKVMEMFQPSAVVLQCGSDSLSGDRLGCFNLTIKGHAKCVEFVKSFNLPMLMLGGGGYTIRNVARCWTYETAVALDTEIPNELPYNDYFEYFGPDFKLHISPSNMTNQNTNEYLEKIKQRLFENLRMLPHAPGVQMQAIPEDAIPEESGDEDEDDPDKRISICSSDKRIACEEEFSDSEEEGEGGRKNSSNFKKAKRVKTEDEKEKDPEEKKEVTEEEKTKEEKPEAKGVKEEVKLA

IC50 [1] [nM] | GI50 [2] [nM] | SMILES
99 | 28000 | CCCCCCc1nc2cc(/C=C/C(=O)NO)ccn2c1NCCC(=O)NCCN(C)C [Compound 20, 3-{3-[2-(2-Dimethylamino-ethylcarbamoyl)-ethylamino]-2-hexyl-imidazo[1,2-a]pyridin-7-yl}-N-hydroxy-acrylamide]
130 | 13000 | CCCCCCc1nc2cc(/C=C/C(=O)NO)ccn2c1NCCC(=O)NCCCC [Compound 21, 3-[3-(2-Butylcarbamoyl-ethylamino)-2-hexyl-imidazo[1,2-a]pyridin-7-yl]-N-hydroxy-acrylamide]
140 | 19000 | CCCCCCc1nc2cc(C=CC(=O)NO)ccn2c1NCCC(=O)NC(C)(C)C [Compound 22, 3-[3-(2-tert-Butylcarbamoyl-ethylamino)-2-hexyl-imidazo[1,2-a]pyridin-7-yl]-N-hydroxy-acrylamide]
160 | 15000 | CCCCCCc1nc2cc(/C=C/C(=O)NO)ccn2c1NCCC(=O)NCC(F)(F)F [Compound 23, 3-{2-Hexyl-3-[2-(2,2,2-trifluoro-ethylcarbamoyl)-ethylamino]-imidazo[1,2-a]pyridin-7-yl}-N-hydroxy-acrylamide]
130 | 40000 | CCCCCCc1nc2cc(/C=C/C(=O)NO)ccn2c1NCCC(=O)NCCOC [Compound 24, 3-{2-Hexyl-3-[2-(2-methoxy-ethylcarbamoyl)-ethylamino]-imidazo[1,2-a]pyridin-7-yl}-N-hydroxy-acrylamide]
73 | 2100 | CCCCCCc1nc2cc(/C=C/C(=O)NO)ccn2c1NCCC(=O)NCCSC [Compound 25, 3-{2-Hexyl-3-[2-(2-methylsulfanyl-ethylcarbamoyl)-ethylamino]-imidazo[1,2-a]pyridin-7-yl}-N-hydroxy-acrylamide]
140 | 7900 | C#CCNC(=O)CCNc1c(CCCCCC)nc2cc(/C=C/C(=O)NO)ccn12 [Compound 26, 3-[2-Hexyl-3-(2-prop-2-ynylcarbamoyl-ethylamino)-imidazo[1,2-a]pyridin-7-yl]-N-hydroxy-acrylamide]
180 | 8500 | CCCCCCc1nc2cc(/C=C/C(=O)NO)ccn2c1NCCC(=O)NC(CO)C(C)C (centres unmarked) [Compound 27, 3-{2-Hexyl-3-[2-(1-hydroxymethyl-2-methyl-propylcarbamoyl)-ethylamino]-imidazo[1,2-a]pyridin-7-yl}-N-hydroxy-acrylamide]
110 | 7300 | CCCCCCc1nc2cc(/C=C/C(=O)NO)ccn2c1NCCC(=O)NCCN(CC)CC [Compound 28, 3-{3-[2-(2-Diethylamino-ethylcarbamoyl)-ethylamino]-2-hexyl-imidazo[1,2-a]pyridin-7-yl}-N-hydroxy-acrylamide]
380 | 2100 | CCCCCCc1nc2cc(/C=C/C(=O)NO)ccn2c1NCCC(=O)NCC [Compound 29, 3-[3-(2-Ethylcarbamoyl-ethylamino)-2-hexyl-imidazo[1,2-a]pyridin-7-yl]-N-hydroxy-acrylamide]
880 | 3900 | CCCCCCc1nc2cc(/C=C/C(=O)NO)ccn2c1NCCC(=O)N(C)C [Compound 30, 3-[3-(2-Dimethylcarbamoyl-ethylamino)-2-hexyl-imidazo[1,2-a]pyridin-7-yl]-N-hydroxy-acrylamide]
240 | 2800 | CCCCCCc1nc2cc(/C=C/C(=O)NO)ccn2c1NCCC(=O)N(C)CCN(C)C [Compound 32, 3-(3-{2-[(2-Dimethylamino-ethyl)-methyl-carbamoyl]-ethylamino}-2-hexyl-imidazo[1,2a]pyridin-7-yl)-N-hydroxy-acrylamide]
830 | 27000 | CCCCCCc1nc2cc(/C=C/C(=O)NO)ccn2c1NCCC(=O)N(CCC)CCO [Compound 33, 3-(2-Hexyl-3-{2-[(2-hydroxy-ethyl)-propyl-carbamoyl]-ethylamino}-imidazo[1,2-a]pyridin-7-yl)-N-hydroxy-acrylamide]
870 | 42000 | O=C(/C=C/c1ccn2cc(-c3ccccc3)nc2c1)NO [Compound 34, N-Hydroxy-3-(2-phenyl-imidazo[1,2-a]pyridin-7-yl)-acrylamide]
140 | 9300 | CCCCCCc1nc2cc(/C=C/C(=O)NO)ccn2c1NCCC(=O)NCC(C)(C)CN(C)C [Compound 35, 3-{3-[2-(3-Dimethylamino-2,2-dimethyl-propylcarbamoyl)-ethylamino]-2-hexyl-imidazo[1,2-a]pyridin-7-yl}-N-hydroxy-acrylamide]
390 | 14000 | CCCCCCc1nc2cc(/C=C/C(=O)NO)ccn2c1NCCC(=O)NC [Compound 36, 3-[2-Hexyl-3-(2-methylcarbamoyl-ethylamino)-imidazo[1,2-a]pyridin-7-yl]-N-hydroxy-acrylamide]
590 | 5300 | CCCCCCc1nc2cc(/C=C/C(=O)NO)ccn2c1NCCC(=O)N(C)C(C)C [Compound 37, 3-{2-Hexyl-3-[2-(isopropyl-methyl-carbamoyl)-ethylamino]-imidazo[1,2-a]pyridin-7-yl}-N-hydroxy-acrylamide]
360 | 3500 | CCCCCCc1nc2cc(/C=C/C(=O)NO)ccn2c1NCCC(=O)N(CCOC)C(C)C [Compound 38, 3-(2-Hexyl-3-{2-[isopropyl-(2-methoxy-ethyl)-carbamoyl]-ethylamino}-imidazo[1,2-a]pyridin-7-yl)-N-hydroxy-acrylamide]
1300 | 2500 | Cc1cn2ccc(/C=C/C(=O)NO)cc2n1 [Compound 41, N-Hydroxy-3-(2-methyl-imidazo[1,2-a]pyridin-7-yl)-acrylamide]
160 | 1500 | CCCCNCc1c(C)nc2cc(/C=C/C(=O)NO)ccn12 [Compound 42, 3-(3-Butylaminomethyl-2-methyl-imidazo[1,2-a]pyridin-7-yl)-N-hydroxy-acrylamide]
2000 | 34000 | CCN(CC)CCNCc1c(C(C)(C)C)nc2cc(/C=C/C(=O)NO)ccn12 [Compound 43, 3-{2-tert-Butyl-3-[(2-diethylamino-ethylamino)-methyl]-imidazo[1,2-a]pyridin-7-yl}-N-hydroxy-acrylamide]
2900 | 32000 | CCN(CCN(C)C)Cc1c(-c2ccccc2)nc2cc(/C=C/C(=O)NO)ccn12 [Compound 44, 3-(3-{[(2-Dimethylamino-ethyl)-ethyl-amino]-methyl}-2-phenyl-imidazo[1,2-a]pyridin-7-yl)-N-hydroxy-acrylamide]
> 10000 | 11000 | O=C(/C=C/c1ccn2c(CNCC(F)(F)F)c(-c3ccccc3)nc2c1)NO [Compound 46, N-Hydroxy-3-{2-phenyl-3-[(2,2,2-trifluoro-ethylamino)-methyl]-imidazo[1,2-a]pyridin-7-yl}-acrylamide]
650 | 30000 | CCN(CC)CCNCc1c(-c2ccccc2)nc2cc(/C=C/C(=O)NO)ccn12 [Compound 47, 3-{3-[(2-Diethylamino-ethylamino)-methyl]-2-phenyl-imidazo[1,2a]pyridin-7-yl}-N-hydroxy-acrylamide]
1000 | 9200 | CCCN(CCO)Cc1c(-c2ccccc2)nc2cc(/C=C/C(=O)NO)ccn12 [Compound 48, N-Hydroxy-3-(3-{[(2-hydroxy-ethyl)-propyl-amino]-methyl}-2-phenyl-imidazo[1,2-a]pyridin-7-yl)-acrylamide]
520 | 2400 | CCCN(C)Cc1c(C(C)(C)C)nc2cc(/C=C/C(=O)NO)ccn12 [Compound 50, 3-{2-tert-Butyl-3-[(methyl-propyl-amino)-methyl]-imidazo[1,2-a]pyridin-7-yl}-N-hydroxy-acrylamide]
200 | 1100 | CCN(CC)Cc1c(-c2ccccc2)nc2cc(/C=C/C(=O)NO)ccn12 [Compound 51, 3-(3-Diethylaminomethyl-2-phenyl-imidazo[1,2-a]pyridin-7-yl)-N-hydroxy-acrylamide]
240 | 1200 | CCCN(CC)Cc1c(-c2ccccc2)nc2cc(/C=C/C(=O)NO)ccn12 [Compound 52, 3-{3-[(Ethyl-propyl-amino)-methyl]-2-phenyl-imidazo[1,2-a]pyridin-7-yl}-N-hydroxy-acrylamide]
